A value given as a limit tells only on which side of the number the result lay.

A short description of data set [1]: Cytotoxicity against human MT4 cells assessed as cell viability after 5 days by MTT assay. It is filed as cell-based.
The nature of data set [2]: Selectivity index, ratio of CC50 for human MT4 cells to EC50 for HIV1 RES056 reverse transcriptase K103N/Y181C double mutant infected in human MT4 cells. The following applies: MT4 cells.
Data set [3] can be described thus: Selectivity index, ratio of CC50 for human MT4 cells to EC50 for reverse transcriptase K103N mutant in human MT4 cells infected HIV1 3B. The following applies: MT4 cells.
The test system of data set [4] is Human immunodeficiency virus 1. As to the kind of experiment: Antiviral activity against wild type HIV1 3B harboring reverse transcriptase infected in human MT4 cells assessed as protection against virus induced cytotoxicity after 5 days by MTT assay. It is filed as functional, cell-based. Particulars: Human immunodeficiency virus 1, 3B, MT4, 120 h.
Data set [5] can be described thus: Selectivity index, ratio of CC50 for human MT4 cells to EC50 for reverse transcriptase E138K mutant in human MT4 cells infected HIV1 3B. Particulars: MT4 cells.
Data set [6] in a line: Selectivity index, ratio of CC50 for human MT4 cells to EC50 for reverse transcriptase F227L/V106A double mutant in human MT4 cells infected HIV1 3B. The following applies: MT4 cells.
For data set [7], the system named is Human immunodeficiency virus 2. The experiment in a line: Antiviral activity against HIV2 ROD harboring reverse transcriptase infected in human MT4 cells assessed as protection against virus induced cytotoxicity after 5 days by MTT assay. Type of data set: functional, cell-based. Particulars: Human immunodeficiency virus 2, ISOLATE ROD, MT4, 120 h.
Data set [8] is described as follows: Selectivity index, ratio of CC50 for human MT4 cells to EC50 for reverse transcriptase Y181C mutant in human MT4 cells infected HIV1 3B. The following applies: MT4 cells.
A short description of data set [9]: Selectivity index, ratio of CC50 for human MT4 cells to EC50 for reverse transcriptase Y188L mutant in human MT4 cells infected HIV1 3B. The following applies: MT4 cells.
A short description of data set [10]: Selectivity index, ratio of CC50 for human MT4 cells to EC50 for reverse transcriptase L100I mutant in human MT4 cells infected HIV1 3B. The following applies: MT4 cells.
The nature of data set [11]: Selectivity index, ratio of CC50 for human MT4 cells to EC50 for wild type HIV1 3B harboring reverse transcriptase infected in human MT4 cells. The following applies: MT4 cells.

Consider `COC(=O)c1ccc(CN2CCC(Nc3nc(Oc4c(C)cc(C#N)cc4C)c4ccsc4n3)CC2)cc1`, for which the cytotoxic concentration (CC50) at 120 h in data set [1] is 28600 nM. Moreover, the selectivity ratio in data set [2] came to 19; in data set [3], 982; in data set [5], 805; in [6], 109; in [8], 316; in [9], 181. For the same molecule, the selectivity ratio in data set [10] is 214; in data set [11], 5450. Also, the values for the EC50 in [4] and in data set [7] were 5.26 nM and > 28600 nM, respectively.

As for `CCOC(=O)c1ccc(CN2CCC(Nc3nc(Oc4c(C)cc(C#N)cc4C)c4ccsc4n3)CC2)cc1`, the CC50 at 120 h in data set [1] is > 230000 nM. For the same molecule, the selectivity ratio in data set [2] was > 6; in [3], > 625; in data set [5], > 463; in [6], > 63; in data set [8], > 207; in [9], > 124. Also, the selectivity ratio in data set [10] was > 160; in data set [11] it was > 2330. The EC50 in data set [4] was 98.9 nM; in [7], > 230000 nM.

Regarding `Cc1cc(C#N)cc(C)c1Oc1nc(NC2CCC(NCc3ccccc3)CC2)nc2ccsc12` (configuration not stated), in [1], the CC50 at 120 h was determined as 2970 nM. Moreover, the selectivity ratio in data set [2] is < 1; in data set [3], 4; in data set [5], 3; in data set [6] it was 3; in data set [8], < 1; in [9] it was < 1. The values for the selectivity ratio in data set [10] and in data set [11] were 3 and 13, respectively. For the same molecule, the EC50 is 230 nM in data set [4] and > 2970 nM in data set [7].

Consider `CCOC(=O)c1ccc(CN2CCC(Nc3nc(Oc4c(C)cc(/C=C/C#N)cc4C)c4sccc4n3)CC2)cc1`, for which, in data set [1], the CC50 at 120 h is ≥ 3610 nM. In addition, the selectivity ratio in data set [2] is ≥ 22; in data set [3], ≥ 273; in [5], ≥ 96; in [6], ≥ 42; in data set [8] it was ≥ 110; in [9] it was ≥ 22. Besides, the selectivity ratio is ≥ 134 in data set [10] and ≥ 247 in [11]. Further, the EC50 in data set [4] is 14.6 nM; in data set [7] it was > 3610 nM.

Consider `Cc1cc(C#N)cc(C)c1Oc1nc(NC2CCC(NCc3ccc(Br)cc3)CC2)nc2ccsc12` (configuration not stated), for which the CC50 at 120 h in [1] stood at 3450 nM. Also, the selectivity ratio in [2] was < 1; in data set [3], ≤ 5; in data set [5], 4; in data set [6], < 1; in [8], < 1; in data set [9], < 1. The values for the selectivity ratio in data set [10] and in [11] were ≤ 2 and 10, respectively. Further, the EC50 in data set [4] was 339 nM; in data set [7], > 3450 nM.

In the case of `Cc1cc(/C=C/C#N)cc(C)c1Oc1nc(NC2CCN(Cc3ccccc3Cl)CC2)nc2ccsc12`, in data set [1], the CC50 at 120 h came out at 4930 nM. The selectivity ratio was 30 in [2]; 169 in [3]; 31 in [5]; 68 in data set [6]; 37 in data set [8]; 24 in data set [9]. In addition, the selectivity ratio in data set [10] was determined as 162; in data set [11], 179. The EC50 in data set [4] was 27.4 nM; in data set [7], > 4930 nM.

For `Cc1cc(C#N)cc(C)c1Oc1nc(NC2CCN(Cc3cccc(C(N)=O)c3)CC2)nc2sccc12`, in data set [1], the CC50 at 120 h was > 48700 nM. The selectivity ratio in data set [2] was > 10; in [3] it was > 5490; in data set [5], > 5610; in [6] it was > 1930; in data set [8] it was > 5300; in [9] it was > 2870. The values for the selectivity ratio in data set [10] and in [11] were > 4630 and > 9420, respectively. The EC50 in data set [4] is 5.17 nM; in data set [7], > 48700 nM.

The record behind these values is ChEMBL document CHEMBL4049458, “Structure-Based Optimization of Thiophene[3,2-d]pyrimidine Derivatives as Potent HIV-1 Non-nucleoside Reverse Transcriptase Inhibitors with Improved Potency against Resistance-Associated Variants” (J Med Chem, 2017).
